The text below walks through data of ChEMBL document CHEMBL1148250, “MexAB-OprM specific efflux pump inhibitors in Pseudomonas aeruginosa. Part 4: Addressing the problem of poor stability due to photoisomerization of an acrylic acid moiety” (2004).

What all share (type): functional
Assay [1] has as its system Pseudomonas aeruginosa. The assay is described as follows: Minimum concentration (using PAM1723, a strain of Pseudomonas aeruginosa) required to reduce antibacterial activity by 8 folds for aztreonam in the presence 0.125% of human serum albumin.
The subject of assay [2] is Pseudomonas aeruginosa. Put plainly: Minimum concentration (using PAM1723, a strain of Pseudomonas aeruginosa) required to reduce antibacterial activity by 8 folds for Levofloxacin.
Assay [3] relates to Pseudomonas aeruginosa. The assay is described as follows: Minimum concentration (using PAM1723, a strain of Pseudomonas aeruginosa) required to reduce antibacterial activity by 4 folds for Levofloxacin.
The test system of assay [4] is Pseudomonas aeruginosa. The assay is described as follows: Minimum concentration (using PAM1723, a strain of Pseudomonas aeruginosa) required to reduce antibacterial activity by 8 folds for aztreonam in the absence of human serum albumin.

SMILES strings stand for the structures.

As for `CC(C)(C)c1csc(NC(=O)c2ccn3c(=O)c(/C=C/C(=O)O)c(N4CCC[C@@H](OC(N)=O)C4)nc3c2)n1`, the MPC8 in assay [1] came out at 1 µg/mL; in assay [2], 1 µg/mL; in assay [4], 0.5 µg/mL. The compound further returned an MPC4 in assay [3] of less than 0.25 µg/mL.
Take `CC(C)c1csc(CCc2ccn3c(=O)c(/C=C/C(=O)O)c(N4CCCC(O)C4)nc3c2)n1` (stereo unspecified): the MPC8 in assay [1] was 16 µg/mL; in assay [2], 8 µg/mL; in assay [4], 8 µg/mL. Further, in assay [3], the MPC4 was 0.5 µg/mL.
As for `CC(C)(C)c1csc(NC(=O)c2ccn3c(=O)c(/C=C/c4nnn[nH]4)c(N4CCC[C@@H](OC(N)=O)C4)nc3c2)n1`, the MPC8 was 2 µg/mL in assay [1], 0.5 µg/mL in assay [2] and less than 0.25 µg/mL in assay [4]. In assay [3], this compound gave an MPC4 of less than 0.25 µg/mL.
For the compound `CC(C)(C)c1csc(NC(=O)c2ccn3c(=O)c(/C=C/c4nn[nH]n4)c(N4CCC[C@H](OC(N)=O)C4)nc3c2)n1`, the MPC8 stood at 4 µg/mL in assay [1], 2 µg/mL in assay [2] and 1 µg/mL in assay [4]. In addition, the MPC4 in assay [3] came to 0.5 µg/mL.
